Here are results for two compounds from US20050233973A1, “Tri-peptides for antidepressant applications” (priority 1997, published 2005).

Non-standard residues stand in square brackets, D forms with d. Residues, ends and D or L forms follow the SMILES beside them. pGlu = O=C1CC[C@@H](C(=O)O)N1

Test [1] concerns EEP (R^2=Glu) antibody (580B6). The conditions noted are these: tracer 125I-TRH; assay standard = 1.00.
In test [2] the test system is 465B12 antibody (raised to TRH). Particulars: tracer 125I-TRH; assay standard = 1.00.
The test system of test [3] is pentobarbital-anesthetized rats. The test is classed as in vivo, male Wistar rats. The conditions noted are these: IC injection of 10 μg. As for the experimental part: Twenty minutes after loss of the righting reflex, 10 μL of either sterile saline or peptide of this invention (1 or 10 μg/10 μL sterile saline) was administered by intracisternal (IC) injection. The time from IC injection to recovery of the righting reflex, as measured three times within 10 seconds, was recorded.

Test [4] deals with T1, HEK293 cells expressing TRHR-1 (Mus musculus, UniProt P21761).
T1 construct: expressed in transfected cells
T1 sequence (P21761 1-393): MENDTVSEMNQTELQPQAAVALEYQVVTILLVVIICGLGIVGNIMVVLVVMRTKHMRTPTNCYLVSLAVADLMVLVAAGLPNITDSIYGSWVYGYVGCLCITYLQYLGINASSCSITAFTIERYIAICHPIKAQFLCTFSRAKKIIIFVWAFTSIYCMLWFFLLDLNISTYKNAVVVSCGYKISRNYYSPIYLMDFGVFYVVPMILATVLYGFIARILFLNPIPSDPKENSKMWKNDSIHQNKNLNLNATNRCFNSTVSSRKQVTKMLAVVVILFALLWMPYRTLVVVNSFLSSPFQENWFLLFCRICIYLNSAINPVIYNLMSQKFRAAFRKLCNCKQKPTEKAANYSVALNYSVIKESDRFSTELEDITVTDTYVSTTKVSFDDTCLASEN
The test can be described thus: Intracellular calcium response (fura2), TRHR-1 cells. The test is classed as cell-based. A general note: Calcium flux is commonly read through the fluorescence of an indicator in the cells.

The subject of test [5] is CR-V3-B53 antibody (raised to TRH). Particulars: tracer 125I-TRH; assay standard = 1.00.
Test [6] deals with T2, HEK293 cells expressing TRHR-2 (Rattus norvegicus, UniProt A6IZR3).
T2 sequence (A6IZR3 1-352): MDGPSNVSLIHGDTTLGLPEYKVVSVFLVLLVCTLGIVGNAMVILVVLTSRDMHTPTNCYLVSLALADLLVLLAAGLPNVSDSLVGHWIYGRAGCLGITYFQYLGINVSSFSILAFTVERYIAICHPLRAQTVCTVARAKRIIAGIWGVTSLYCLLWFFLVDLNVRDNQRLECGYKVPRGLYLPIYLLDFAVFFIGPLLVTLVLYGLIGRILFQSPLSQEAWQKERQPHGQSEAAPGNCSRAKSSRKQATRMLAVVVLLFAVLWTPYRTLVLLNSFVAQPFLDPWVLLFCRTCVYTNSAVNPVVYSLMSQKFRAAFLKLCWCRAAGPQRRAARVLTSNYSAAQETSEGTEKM
Nature of the test: Intracellular calcium response (fura2), TRHR-2 cells. The format is cell-based.

The nature of test [7]: Serum T3 and T4 levels in Porsolt test animals. The format is in vivo, rats. Particulars: animals of the Porsolt test. As for the experimental part: A Porsolt swim test with rats was used to examine the antidepressant effects of peptides where R^2=Glu or R^2=Phe, as set forth in Lloyd, R. L. et al., Pharamcology, Biochemistry and Behavior, 70:15-22 (2001), incorporated herein by reference. […] No effect of the blocking variable or interaction of the blocking variable with treatment was found.
Using the animal models of Example 11, T3 (triiodothyronine) and T4 (thyroxine) levels were tested. Serum T3 was determined by […], using fluorescence polarization of a fixed concentration of a fluorescent analog of T3 as provided in the Abbott IMX System. T4 was also determined by radioimmunoassay. With EEP, no changes in T3 were observed. […] With ELP (where R^2 is Leu) and EFP there was an increase in T3, but this was not correlated to swim scores, with ELP not producing a behavioral effect, and EFP producing a marginal behavioral effect.

In the next test the target is T3, TRH receptor-2 (TRHR-2) (Rattus norvegicus, UniProt A6IZR3).
T3 sequence (A6IZR3 1-352): T2 sequence (A6IZR3 1-352)
The test can be described thus: [3H]TRH competition binding, HEK293 cells expressing TRHR-2.

Another test concerns the target T4, TRH receptor-1 (TRHR-1) (Mus musculus, UniProt P21761).
T4 sequence (P21761 1-393): T1 sequence (P21761 1-393)
The test can be described thus: [3H]TRH competition binding, HEK293 cells expressing TRHR-1.

Test [8] relates to Porsolt forced swim animal model of depression. Nature of the test: Porsolt swim test. The format is in vivo, rats.
Experimental: Total immobility time versus swim time was recorded. Both high-dose (0.5 mg/kg sc) and low-dose injections (0.05 mg/kg ip) were used.
The test system of a further test is control HEK293 cells. Nature of the test: Intracellular calcium response (fura2), non-transfected control cells. The test is classed as cell-based. Particulars: Ca2+-free buffer. As for the experimental part: The ability of peptides of the formula pGlu-[…] to stimulate an intracellular calcium response in transfected HEK293 of Example 5 was evaluated, to determine whether the peptides behave as agonists. […] The coverslip was then rinsed and placed in a Sykes-Moore chamber covered with 1 mL Ca^2+ and Mg^2+ free HBSS. Imaging was performed on a Nikon inverted microscope with a DAGE CCD72 camera and […] intensifier system. Cells were alternately excited at 340 and 380 nm and emission was measured at 490 nm; 340/380 ratios were obtained every 1.2 seconds and analyzed using Image-1 software from Universal Imaging Corporation. […] Peak responses from between 33 and 120 individual cells were averaged, and responses to TRH were measured with each set of cells as a standard. Most of the peptides caused a small increase in intracellular Ca^2+ when added to control HEK293 cells bathed in Ca^2+-containing medium, but with the exception of the R^2=Leu peptide, none of them evoked an appreciable Ca^2+ response in Ca^2+-free HBSS, which was used for all experiments.

Test [9] is described as follows: Binding capacity / concentration in brain areas.

What is called IC50 is the concentration at which inhibition is half-maximal. A low value points to inhibition by little substance.

As for `CC(C)C[C@H](NC(=O)[C@@H]1CCC(=O)N1)C(=O)N1CCC[C@H]1C(N)=O` [R^2 = Leu, pGlu-Leu-Pro-NH2] ([pGlu]-Leu-Pro-NH2), the “relative potency for displacement of assay tracer” value in test [1] turned out to be 5.00; in test [2], 0.301; in test [5], 0.088. Besides, the “reduction in pentobarbitol-induced sleep time (analeptic effect)” value in [3] is on record as “had an analeptic effect”. Further, the “ability to block the Ca2+ response to low concentrations of TRH (antagonism)” value in test [4] and in test [6] was “no effect was found” each time. In test [7], the “change in T3” value was “increase”. Also, the IC50 was 1.95 µM at TRH receptor-2 (TRHR-2) and 5.47 µM at TRH receptor-1 (TRHR-1). Besides, the “antidepressant effect compared to saline (total immobility time)” value in test [8] (dose not stated) is “statistically meaningful behavioral effects were not observed”. Also, the “Ca2+ response” value in the test on control HEK293 cells was “small Ca^2+ transient”.

Take [pGlu]-Lys-Pro-NH2 [EKP]: in test [9], the “binding capacity in limbic and motor areas of the brain compared to the other TRH analogs” value is “significant binding capacity”. For the same compound, in test [7], the “increase in T3” value is on record as 48% and the “increase in T4” value is 57%. In addition, the “antidepressant effect compared to saline (total immobility time)” value in [8] (low-dose (0.05 mg/kg ip), three injections) is “effective”.
